# Test results from PMC9274761, “Effects of Structurally Different HDAC Inhibitors against Trypanosoma cruzi, Leishmania, and Schistosoma mansoni” (ACS Infectious Diseases, 2022).
# Key:
# [1] = system: L. donovani axenic amastigotes; test: Resazurin reduction assay, L. donovani axenic amastigotes; format: cell-based; conditions: Leishmania donovani, read-out: percentage of inhibition, L. donovani axenic amastigotes
# HDAC8 = target: T1, HDAC8 (Homo sapiens, UniProt Q9BY41); test: HDAC8 protease-coupled fluorescence (AMC) inhibition assay; format: biochemical; conditions: hr enzyme, substrate RHK(Ac)K(Ac)AMC; read-out: IC50 against HDAC8
# T1 sequence (Q9BY41 1-377): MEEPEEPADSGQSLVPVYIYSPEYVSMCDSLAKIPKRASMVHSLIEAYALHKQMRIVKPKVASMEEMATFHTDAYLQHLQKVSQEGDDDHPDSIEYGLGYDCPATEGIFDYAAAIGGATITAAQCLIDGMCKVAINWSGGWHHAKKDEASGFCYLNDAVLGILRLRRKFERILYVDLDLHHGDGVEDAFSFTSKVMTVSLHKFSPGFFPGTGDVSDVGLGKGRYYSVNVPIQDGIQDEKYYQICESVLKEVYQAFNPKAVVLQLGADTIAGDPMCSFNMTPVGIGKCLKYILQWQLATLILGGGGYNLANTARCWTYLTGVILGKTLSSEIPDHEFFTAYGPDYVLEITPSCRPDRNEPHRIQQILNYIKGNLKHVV
# From the text: (§1) The new hydroxamates 2 and 6 were screened and profiled via a protease-coupled assay in which the quantification of HDAC enzyme activity is based on the formation of a free fluorescent group, the 7-amino-4-methyl coumarin (AMC).[42] […] After deacetylation by HDACs, the de(trifluoro)acetylated AMC–peptides were sensitive toward lysine peptidase and free fluorogenic AMC was generated and quantified.[42]
# (§2) To gain insights into its inhibition profile for human HDACs, we tested 3 against hrHDACs 1–6 and 8 following the above procedure (Table 1).
# (§3) Individual IC50 values for each HDAC isozyme were measured with the homogeneous fluorescence release HDAC assay.[42]
# [2] = system: newly transformed schistosomula (NTS); test: Phenotypic screening on newly transformed schistosomula (NTS); format: cell-based, Schistosoma mansoni
# HDAC5 = HDAC5 (Homo sapiens, UniProt Q9UQL6); test: HDAC5 protease-coupled fluorescence (AMC) inhibition assay; format: biochemical; conditions: hr enzyme, class IIa substrate Boc-Lys(trifluoroacetyl)-AMC; read-out: IC50 against HDAC5
# From the text: as §1, §2, §3
# [3] = system: L. donovani promastigotes; test: Resazurin reduction assay, L. donovani promastigotes; format: cell-based; conditions: Leishmania donovani, read-out: percentage of inhibition, L. donovani promastigotes
# [4] = system: T. cruzi amastigotes and trypomastigotes; test: T. cruzi infection assay in L929 cells (beta-galactosidase Tulahuen strain); format: cell-based, Trypanosoma cruzi
# HDAC3 = HDAC3 (Homo sapiens, UniProt O15379); test: HDAC3 protease-coupled fluorescence (AMC) inhibition assay; format: biochemical; conditions: hr enzyme, 10-dose, 3-fold dilution from 50 μM (3: from 300 μM); read-out: IC50 against HDAC3
# From the text: as §1, §2, §3
# HDAC1 = HDAC1 (Homo sapiens, UniProt Q13547); test: HDAC1 protease-coupled fluorescence (AMC) inhibition assay; format: biochemical; conditions: hr enzyme, 10-dose, 3-fold dilution from 50 μM (3: from 300 μM); read-out: IC50 against HDAC1
# From the text: as §1, §2, §3
# HDAC6 = target: T2, HDAC6 (Homo sapiens, UniProt Q9UBN7); test: HDAC6 protease-coupled fluorescence (AMC) inhibition assay; format: biochemical; conditions: hr enzyme, 10-dose, 3-fold dilution from 50 μM (3: from 300 μM); read-out: IC50 against HDAC6
# T2 sequence (Q9UBN7 1-1215): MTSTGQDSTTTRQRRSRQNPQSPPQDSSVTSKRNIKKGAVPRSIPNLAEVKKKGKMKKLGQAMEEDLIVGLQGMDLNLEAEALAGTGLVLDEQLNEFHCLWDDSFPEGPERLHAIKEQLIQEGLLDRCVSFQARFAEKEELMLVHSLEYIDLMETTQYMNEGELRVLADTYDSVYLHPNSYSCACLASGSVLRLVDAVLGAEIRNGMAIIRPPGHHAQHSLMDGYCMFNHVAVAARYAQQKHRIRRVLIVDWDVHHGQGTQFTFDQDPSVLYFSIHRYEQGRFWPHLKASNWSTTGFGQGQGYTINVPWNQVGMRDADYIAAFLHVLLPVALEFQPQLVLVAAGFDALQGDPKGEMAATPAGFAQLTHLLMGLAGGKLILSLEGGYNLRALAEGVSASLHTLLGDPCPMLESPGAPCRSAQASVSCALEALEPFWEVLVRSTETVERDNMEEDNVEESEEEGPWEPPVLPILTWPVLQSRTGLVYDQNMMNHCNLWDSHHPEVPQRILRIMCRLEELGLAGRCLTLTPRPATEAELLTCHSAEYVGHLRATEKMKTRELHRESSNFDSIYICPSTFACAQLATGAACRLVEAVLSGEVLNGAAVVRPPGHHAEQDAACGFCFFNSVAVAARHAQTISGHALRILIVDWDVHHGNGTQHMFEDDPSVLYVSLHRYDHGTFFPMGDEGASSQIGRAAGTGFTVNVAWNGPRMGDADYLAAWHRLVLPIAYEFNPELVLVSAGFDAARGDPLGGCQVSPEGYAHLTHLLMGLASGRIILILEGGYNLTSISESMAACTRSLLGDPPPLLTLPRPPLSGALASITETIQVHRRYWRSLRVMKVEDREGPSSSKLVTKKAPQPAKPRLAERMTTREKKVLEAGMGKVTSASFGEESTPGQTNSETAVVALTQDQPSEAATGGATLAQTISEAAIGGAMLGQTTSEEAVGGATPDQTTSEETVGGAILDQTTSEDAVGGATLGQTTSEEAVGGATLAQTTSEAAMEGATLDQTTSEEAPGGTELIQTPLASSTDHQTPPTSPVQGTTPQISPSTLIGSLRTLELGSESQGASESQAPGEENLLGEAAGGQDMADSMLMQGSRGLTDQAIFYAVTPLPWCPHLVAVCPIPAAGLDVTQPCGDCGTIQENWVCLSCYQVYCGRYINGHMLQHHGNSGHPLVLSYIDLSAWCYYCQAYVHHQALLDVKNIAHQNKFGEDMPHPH
# From the text: as §1, §2, §3
# [5] = system: L. amazonensis promastigotes; test: Resazurin reduction assay, L. amazonensis promastigotes; format: cell-based; conditions: Leishmania amazonensis; 20 μM; read-out: percentage of inhibition, L. amazonensis promastigotes
# HDAC4 = HDAC4 (Homo sapiens, UniProt P56524); test: HDAC4 protease-coupled fluorescence (AMC) inhibition assay; format: biochemical; conditions: hr enzyme, class IIa substrate Boc-Lys(trifluoroacetyl)-AMC; read-out: IC50 against HDAC4
# From the text: as §1, §2, §3
# in vitro = conditions: mouse, noninfected L929 fibroblast cells
# HDAC2 = HDAC2 (Homo sapiens, UniProt Q92769); test: HDAC2 protease-coupled fluorescence (AMC) inhibition assay; format: biochemical; conditions: hr enzyme, 10-dose, 3-fold dilution from 50 μM (3: from 300 μM); read-out: IC50 against HDAC2
# From the text: as §1, §2, §3
# Leishmania = system: Leishmania; design: method as in PMID 28107750; conditions: 10 and 20 μM; cited from earlier work
# [6] = system: S. mansoni schistosomula, adult worm pairs, and egg production; design: method as in PMID 28107750; conditions: 10 μM; cited from earlier work
# Sequence of HDAC5 (Q9UQL6 whole entry): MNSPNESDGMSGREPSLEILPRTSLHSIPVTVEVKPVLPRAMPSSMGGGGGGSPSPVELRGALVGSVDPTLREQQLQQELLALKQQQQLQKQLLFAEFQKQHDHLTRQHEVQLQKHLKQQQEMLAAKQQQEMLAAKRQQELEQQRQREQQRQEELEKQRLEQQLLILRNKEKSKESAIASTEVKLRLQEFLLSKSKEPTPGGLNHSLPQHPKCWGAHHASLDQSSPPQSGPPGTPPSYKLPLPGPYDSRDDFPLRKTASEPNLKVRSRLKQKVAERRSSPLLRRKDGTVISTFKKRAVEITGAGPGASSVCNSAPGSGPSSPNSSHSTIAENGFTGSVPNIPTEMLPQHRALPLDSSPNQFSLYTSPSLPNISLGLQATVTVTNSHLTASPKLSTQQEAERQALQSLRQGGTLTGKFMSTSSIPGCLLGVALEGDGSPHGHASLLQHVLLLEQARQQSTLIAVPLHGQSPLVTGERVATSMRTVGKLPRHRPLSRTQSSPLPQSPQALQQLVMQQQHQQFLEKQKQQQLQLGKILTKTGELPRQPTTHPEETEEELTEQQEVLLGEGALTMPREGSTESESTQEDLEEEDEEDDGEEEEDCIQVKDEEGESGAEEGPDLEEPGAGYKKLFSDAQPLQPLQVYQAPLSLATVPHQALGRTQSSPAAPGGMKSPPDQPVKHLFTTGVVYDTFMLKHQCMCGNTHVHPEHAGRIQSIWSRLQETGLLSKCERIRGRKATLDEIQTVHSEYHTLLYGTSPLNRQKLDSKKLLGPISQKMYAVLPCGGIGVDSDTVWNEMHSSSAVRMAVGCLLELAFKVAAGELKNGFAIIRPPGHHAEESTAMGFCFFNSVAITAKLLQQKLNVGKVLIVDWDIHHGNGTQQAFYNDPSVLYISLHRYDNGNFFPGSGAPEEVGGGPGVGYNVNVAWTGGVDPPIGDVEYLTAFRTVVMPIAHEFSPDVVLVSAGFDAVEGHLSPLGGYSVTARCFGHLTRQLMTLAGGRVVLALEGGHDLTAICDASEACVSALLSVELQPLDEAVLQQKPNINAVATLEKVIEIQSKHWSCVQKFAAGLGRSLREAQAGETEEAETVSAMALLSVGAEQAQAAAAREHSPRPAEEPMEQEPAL
# Sequence of HDAC3 (O15379 whole entry): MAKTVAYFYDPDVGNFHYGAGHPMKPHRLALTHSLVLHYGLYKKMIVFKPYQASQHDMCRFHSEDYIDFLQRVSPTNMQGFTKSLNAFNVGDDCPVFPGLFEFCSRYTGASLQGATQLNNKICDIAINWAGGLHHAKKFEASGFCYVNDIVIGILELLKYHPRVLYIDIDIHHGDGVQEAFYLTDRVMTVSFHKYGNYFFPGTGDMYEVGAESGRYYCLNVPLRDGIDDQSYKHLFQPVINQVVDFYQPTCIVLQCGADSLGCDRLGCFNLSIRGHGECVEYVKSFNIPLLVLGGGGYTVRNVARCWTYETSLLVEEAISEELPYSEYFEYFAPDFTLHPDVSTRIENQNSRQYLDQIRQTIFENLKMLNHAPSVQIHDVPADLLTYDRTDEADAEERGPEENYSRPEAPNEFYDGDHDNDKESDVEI
# Sequence of HDAC3 (Q9Y618 395-489 partner limits assumed): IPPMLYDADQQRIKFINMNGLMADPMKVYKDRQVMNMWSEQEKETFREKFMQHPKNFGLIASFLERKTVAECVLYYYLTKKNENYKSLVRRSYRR
# Sequence of HDAC2 (Q92769 whole entry): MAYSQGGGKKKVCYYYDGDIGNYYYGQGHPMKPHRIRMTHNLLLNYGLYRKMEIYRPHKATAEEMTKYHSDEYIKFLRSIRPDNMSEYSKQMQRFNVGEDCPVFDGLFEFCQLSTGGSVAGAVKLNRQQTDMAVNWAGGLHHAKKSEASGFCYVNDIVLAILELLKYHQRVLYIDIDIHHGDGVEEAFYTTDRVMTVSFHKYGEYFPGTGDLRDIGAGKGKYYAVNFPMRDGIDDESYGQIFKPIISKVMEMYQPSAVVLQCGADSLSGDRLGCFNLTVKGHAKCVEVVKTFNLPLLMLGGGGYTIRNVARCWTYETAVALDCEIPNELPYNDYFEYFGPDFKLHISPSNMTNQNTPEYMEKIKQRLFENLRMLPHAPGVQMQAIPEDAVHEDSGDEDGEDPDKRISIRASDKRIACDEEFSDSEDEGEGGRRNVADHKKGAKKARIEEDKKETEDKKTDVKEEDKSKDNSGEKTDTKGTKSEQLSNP
# Sequence of HDAC1 (Q13547 whole entry): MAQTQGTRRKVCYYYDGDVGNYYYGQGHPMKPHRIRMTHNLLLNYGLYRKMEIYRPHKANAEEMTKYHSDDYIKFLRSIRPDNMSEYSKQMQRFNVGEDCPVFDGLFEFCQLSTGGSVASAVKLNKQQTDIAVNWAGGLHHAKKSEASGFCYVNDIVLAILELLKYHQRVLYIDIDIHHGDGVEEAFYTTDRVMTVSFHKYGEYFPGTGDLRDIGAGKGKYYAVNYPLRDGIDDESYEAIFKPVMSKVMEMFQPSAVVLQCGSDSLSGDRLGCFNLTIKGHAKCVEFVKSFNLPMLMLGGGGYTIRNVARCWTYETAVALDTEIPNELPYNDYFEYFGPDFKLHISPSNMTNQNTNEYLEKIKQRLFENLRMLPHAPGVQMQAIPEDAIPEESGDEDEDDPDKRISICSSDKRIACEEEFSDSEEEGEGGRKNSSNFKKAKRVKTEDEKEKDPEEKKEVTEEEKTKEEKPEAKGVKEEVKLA
# Sequence of HDAC4 (P56524 whole entry): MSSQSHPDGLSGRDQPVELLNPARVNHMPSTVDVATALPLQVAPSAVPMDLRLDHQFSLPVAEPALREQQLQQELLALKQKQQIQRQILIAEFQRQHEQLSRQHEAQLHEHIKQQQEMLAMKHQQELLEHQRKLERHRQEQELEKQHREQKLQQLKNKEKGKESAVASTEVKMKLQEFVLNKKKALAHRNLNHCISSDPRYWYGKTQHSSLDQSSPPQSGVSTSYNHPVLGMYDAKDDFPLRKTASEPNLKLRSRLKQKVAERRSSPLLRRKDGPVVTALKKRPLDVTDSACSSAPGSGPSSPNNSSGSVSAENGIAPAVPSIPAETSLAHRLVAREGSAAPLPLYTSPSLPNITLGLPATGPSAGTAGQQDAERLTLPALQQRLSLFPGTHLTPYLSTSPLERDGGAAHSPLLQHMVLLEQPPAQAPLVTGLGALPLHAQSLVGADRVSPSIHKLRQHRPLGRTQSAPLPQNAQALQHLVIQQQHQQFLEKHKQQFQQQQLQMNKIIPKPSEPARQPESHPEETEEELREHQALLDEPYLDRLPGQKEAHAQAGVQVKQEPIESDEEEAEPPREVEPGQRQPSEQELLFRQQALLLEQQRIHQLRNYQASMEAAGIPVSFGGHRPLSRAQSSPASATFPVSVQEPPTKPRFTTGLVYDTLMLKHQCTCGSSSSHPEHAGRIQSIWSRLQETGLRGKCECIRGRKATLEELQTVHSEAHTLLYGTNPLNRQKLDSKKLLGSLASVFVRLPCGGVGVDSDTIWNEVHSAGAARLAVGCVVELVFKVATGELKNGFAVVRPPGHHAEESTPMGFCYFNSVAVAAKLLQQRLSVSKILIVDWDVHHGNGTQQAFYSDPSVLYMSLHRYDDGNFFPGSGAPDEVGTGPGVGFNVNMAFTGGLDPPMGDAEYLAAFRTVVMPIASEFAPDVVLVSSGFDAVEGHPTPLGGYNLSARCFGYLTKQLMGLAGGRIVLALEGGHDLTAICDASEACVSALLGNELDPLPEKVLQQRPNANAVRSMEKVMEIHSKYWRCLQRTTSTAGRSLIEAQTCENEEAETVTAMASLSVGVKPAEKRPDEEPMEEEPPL
compound,measurement,setting,value
Cn1c(/C=C/C(=O)NO)ccc1/C=C/C(=O)c1cccc(Cl)c1 [Compound 3],inhibition at 0.8 µM,[1]; 0.8 μM,4.9 ± 4.9%
same,inhibition at 4 µM,[1]; 4 μM,50.8 ± 2.4%
same,inhibition at 20 µM,[1]; 20 μM,74.9 ± 1.3%
same,IC50,HDAC8,2 µM
same,"percentage of NTS activity, 72 h",[2]; 10 μM,22.3 ± 2.0%
same,"percentage of NTS activity, 72 h",[2]; 20 μM,23.5 ± 0.9%
same,IC50,"[2]; Schistosoma mansoni, 72 h, read-out: IC50, viability of NTS",> 20 µM
same,IC50,HDAC5,131 µM
same,inhibition at 0.8 µM,[3]; 0.8 μM,3.8 ± 3.4%
same,inhibition at 4 µM,[3]; 4 μM,1.7 ± 1.5%
same,inhibition at 20 µM,[3]; 20 μM,6.8 ± 1.8%
same,percentage of T. cruzi growth inhibition,"[4]; 80 μM, infected L929 cells, 96 h, toxic = L929 death",toxic
same,percentage of T. cruzi growth inhibition,"[4]; 160 μM, infected L929 cells, 96 h, toxic = L929 death",toxic
same,"selectivity index (SI), CC50/EC50",[4]; L929 CC50 / T. cruzi EC50,5.7
same,EC50,"[4]; Trypanosoma cruzi, L929, 96 h, infected L929 cells, 96 h, mean ± SD, read-out: EC50, growth of T. cruzi amastigotes and trypomastigotes",7 ± 0.2 µM
same,inhibition at 1.25 µM,"[4]; Trypanosoma cruzi, 1.25 μM, infected L929 cells, 96 h, read-out: percentage of T. cruzi growth inhibition",0%
same,inhibition at 2.5 µM,"[4]; Trypanosoma cruzi, 2.5 μM, infected L929 cells, 96 h, toxic = L929 death, read-out: percentage of T. cruzi growth inhibition",2%
same,inhibition at 5 µM,"[4]; Trypanosoma cruzi, 5 μM, infected L929 cells, 96 h, toxic = L929 death, read-out: percentage of T. cruzi growth inhibition",39%
same,inhibition at 10 µM,"[4]; Trypanosoma cruzi, 10 μM, infected L929 cells, 96 h, toxic = L929 death, read-out: percentage of T. cruzi growth inhibition",67%
same,inhibition at 20 µM,"[4]; Trypanosoma cruzi, 20 μM, infected L929 cells, 96 h, toxic = L929 death, read-out: percentage of T. cruzi growth inhibition",87%
same,inhibition at 40 µM,"[4]; Trypanosoma cruzi, 40 μM, infected L929 cells, 96 h, toxic = L929 death, read-out: percentage of T. cruzi growth inhibition",90%
same,IC50,HDAC3,> 300 µM
same,IC50,HDAC1,> 300 µM
same,IC50,HDAC6,6.1 µM
same,inhibition at 20 µM,[5],9.1 ± 6.3%
same,IC50,HDAC4,132 µM
same,CC50 at 96 h,in vitro,40 µM
same,IC50,HDAC2,257 µM
O=C(/C=C/c1cccc(S(=O)(=O)Nc2ccccc2)c1)NO [belinostat],effect in Leishmania,Leishmania,ineffective and/or exhibited too high toxicity for macrophages
same,"effects in schistosomula, adult worm pairs, and egg production",[6],only moderate effects
Cc1[nH]c2ccccc2c1CCNCc1ccc(/C=C/C(=O)NO)cc1 [panobinostat],effect in Leishmania,Leishmania,ineffective and/or exhibited too high toxicity for macrophages
same,"effects in schistosomula, adult worm pairs, and egg production",[6],only moderate effects
C/C=C1\NC(=O)[C@H]2CSSCC/C=C/[C@H](CC(=O)N[C@H](C(C)C)C(=O)N2)OC(=O)[C@H](C(C)C)NC1=O [romidepsin],effect in Leishmania,Leishmania,ineffective and/or exhibited too high toxicity for macrophages
same,"effects in schistosomula, adult worm pairs, and egg production",[6],only moderate effects
O=C(CCCCCCC(=O)Nc1ccccc1)NO [SAHA],effect in Leishmania,Leishmania,ineffective and/or exhibited too high toxicity for macrophages
same,"effects in schistosomula, adult worm pairs, and egg production",[6],only moderate effects
